From BigSolDB 2.1

With Cn1[nH]c(=O)c(=O)[nH]c1=S as the compound, how does the solubility (mole fraction) (in acetone, 293.25 K) read?
Its solubility (mole fraction) is 0.015.

And the solubility (mole fraction) (in acetone, 298.25 K)?
The solubility (mole fraction) was 0.0155.

And the solubility (mole fraction) (in acetone, 303.09 K)?
The solubility (mole fraction) was 0.016.

What about the solubility (mole fraction) (in acetone, 308.05 K) of the same compound?
The solubility (mole fraction) was 0.0168.

And the solubility (mole fraction) (in acetone, 312.79 K)?
The solubility (mole fraction) was 0.0178.

And the solubility (mole fraction) (in acetone, 318.03 K)?
Its solubility (mole fraction) is 0.0186.

And the solubility (mole fraction) (in acetone, 323.07 K)?
The solubility (mole fraction) was 0.0199.

And the solubility (mole fraction) (in acetone, 327.37 K)?
The solubility (mole fraction) was 0.0209.

And the solubility (mole fraction) (in acetonitrile, 293.21 K)?
Its solubility (mole fraction) is 0.00221.

What about the solubility (mole fraction) (in acetonitrile, 298.23 K) of the same compound?
Its solubility (mole fraction) is 0.00248.

What about the solubility (mole fraction) (in acetonitrile, 303.15 K) of the same compound?
The solubility (mole fraction) was 0.00268.

What about the solubility (mole fraction) (in acetonitrile, 308.11 K) of the same compound?
The solubility (mole fraction) was 0.00299.

What about the solubility (mole fraction) (in acetonitrile, 313.07 K) of the same compound?
The solubility (mole fraction) was 0.00333.

What about the solubility (mole fraction) (in acetonitrile, 317.95 K) of the same compound?
Its solubility (mole fraction) is 0.00375.

What about the solubility (mole fraction) (in acetonitrile, 323.11 K) of the same compound?
The solubility (mole fraction) was 0.0042.

And the solubility (mole fraction) (in acetonitrile, 328.13 K)?
Its solubility (mole fraction) is 0.00463.

And the solubility (mole fraction) (in acetonitrile, 333.23 K)?
Its solubility (mole fraction) is 0.00521.

And the solubility (mole fraction) (in acetonitrile, 338.17 K)?
The solubility (mole fraction) was 0.00585.

And the solubility (mole fraction) (in acetonitrile, 342.75 K)?
Its solubility (mole fraction) is 0.00654.

And the solubility (mole fraction) (in ethanol, 293.23 K)?
The solubility (mole fraction) was 0.0125.

What about the solubility (mole fraction) (in ethanol, 298.35 K) of the same compound?
Its solubility (mole fraction) is 0.014.

What about the solubility (mole fraction) (in ethanol, 303.33 K) of the same compound?
Its solubility (mole fraction) is 0.0152.

And the solubility (mole fraction) (in ethanol, 308.29 K)?
Its solubility (mole fraction) is 0.0169.

What about the solubility (mole fraction) (in ethanol, 313.47 K) of the same compound?
The solubility (mole fraction) was 0.0186.

What about the solubility (mole fraction) (in ethanol, 318.47 K) of the same compound?
Its solubility (mole fraction) is 0.0205.

What about the solubility (mole fraction) (in ethanol, 323.41 K) of the same compound?
The solubility (mole fraction) was 0.0228.

And the solubility (mole fraction) (in ethanol, 328.23 K)?
Its solubility (mole fraction) is 0.0255.

And the solubility (mole fraction) (in ethanol, 333.53 K)?
The solubility (mole fraction) was 0.0278.

What about the solubility (mole fraction) (in ethanol, 338.63 K) of the same compound?
Its solubility (mole fraction) is 0.0307.

What about the solubility (mole fraction) (in ethanol, 343.33 K) of the same compound?
The solubility (mole fraction) was 0.0345.

And the solubility (mole fraction) (in ethyl acetate, 293.07 K)?
The solubility (mole fraction) was 0.00574.

And the solubility (mole fraction) (in ethyl acetate, 298.49 K)?
Its solubility (mole fraction) is 0.00617.

What about the solubility (mole fraction) (in ethyl acetate, 303.41 K) of the same compound?
Its solubility (mole fraction) is 0.00643.

What about the solubility (mole fraction) (in ethyl acetate, 308.49 K) of the same compound?
The solubility (mole fraction) was 0.00697.

And the solubility (mole fraction) (in ethyl acetate, 313.53 K)?
Its solubility (mole fraction) is 0.00747.

What about the solubility (mole fraction) (in ethyl acetate, 318.67 K) of the same compound?
The solubility (mole fraction) was 0.00799.

And the solubility (mole fraction) (in ethyl acetate, 323.49 K)?
Its solubility (mole fraction) is 0.0086.

And the solubility (mole fraction) (in ethyl acetate, 328.61 K)?
Its solubility (mole fraction) is 0.00918.

What about the solubility (mole fraction) (in ethyl acetate, 333.53 K) of the same compound?
Its solubility (mole fraction) is 0.00985.

And the solubility (mole fraction) (in ethyl acetate, 338.23 K)?
Its solubility (mole fraction) is 0.0104.

And the solubility (mole fraction) (in ethyl acetate, 343.33 K)?
Its solubility (mole fraction) is 0.0111.

And the solubility (mole fraction) (in isopropanol, 293.11 K)?
The solubility (mole fraction) was 0.00556.

And the solubility (mole fraction) (in isopropanol, 298.21 K)?
Its solubility (mole fraction) is 0.00663.

What about the solubility (mole fraction) (in isopropanol, 303.13 K) of the same compound?
Its solubility (mole fraction) is 0.00782.

And the solubility (mole fraction) (in isopropanol, 308.11 K)?
Its solubility (mole fraction) is 0.00915.

What about the solubility (mole fraction) (in isopropanol, 312.87 K) of the same compound?
Its solubility (mole fraction) is 0.0107.

What about the solubility (mole fraction) (in isopropanol, 317.83 K) of the same compound?
Its solubility (mole fraction) is 0.0124.

What about the solubility (mole fraction) (in isopropanol, 323.07 K) of the same compound?
The solubility (mole fraction) was 0.0142.

And the solubility (mole fraction) (in isopropanol, 328.13 K)?
Its solubility (mole fraction) is 0.0164.

What about the solubility (mole fraction) (in isopropanol, 333.09 K) of the same compound?
The solubility (mole fraction) was 0.0187.

What about the solubility (mole fraction) (in isopropanol, 337.75 K) of the same compound?
Its solubility (mole fraction) is 0.0217.

What about the solubility (mole fraction) (in isopropanol, 342.67 K) of the same compound?
The solubility (mole fraction) was 0.0248.

What about the solubility (mole fraction) (in n-butanol, 293.11 K) of the same compound?
Its solubility (mole fraction) is 0.00872.

What about the solubility (mole fraction) (in n-butanol, 298.23 K) of the same compound?
Its solubility (mole fraction) is 0.00964.

And the solubility (mole fraction) (in n-butanol, 302.99 K)?
The solubility (mole fraction) was 0.0109.

And the solubility (mole fraction) (in n-butanol, 308.11 K)?
The solubility (mole fraction) was 0.0124.

And the solubility (mole fraction) (in n-butanol, 313.13 K)?
The solubility (mole fraction) was 0.0141.

And the solubility (mole fraction) (in n-butanol, 318.05 K)?
The solubility (mole fraction) was 0.0159.

And the solubility (mole fraction) (in n-butanol, 322.89 K)?
Its solubility (mole fraction) is 0.0178.

What about the solubility (mole fraction) (in n-butanol, 328.13 K) of the same compound?
The solubility (mole fraction) was 0.02.

And the solubility (mole fraction) (in n-butanol, 333.39 K)?
Its solubility (mole fraction) is 0.0224.

And the solubility (mole fraction) (in n-butanol, 338.07 K)?
Its solubility (mole fraction) is 0.0255.

What about the solubility (mole fraction) (in n-butanol, 343.23 K) of the same compound?
Its solubility (mole fraction) is 0.0288.

What about the solubility (mole fraction) (in n-propanol, 292.99 K) of the same compound?
The solubility (mole fraction) was 0.00859.

And the solubility (mole fraction) (in n-propanol, 298.33 K)?
Its solubility (mole fraction) is 0.00959.

And the solubility (mole fraction) (in n-propanol, 303.23 K)?
Its solubility (mole fraction) is 0.0108.

And the solubility (mole fraction) (in n-propanol, 308.23 K)?
The solubility (mole fraction) was 0.0122.

What about the solubility (mole fraction) (in n-propanol, 313.15 K) of the same compound?
Its solubility (mole fraction) is 0.0139.

And the solubility (mole fraction) (in n-propanol, 318.23 K)?
Its solubility (mole fraction) is 0.0157.

What about the solubility (mole fraction) (in n-propanol, 323.23 K) of the same compound?
Its solubility (mole fraction) is 0.0176.

And the solubility (mole fraction) (in n-propanol, 328.47 K)?
The solubility (mole fraction) was 0.0198.

And the solubility (mole fraction) (in n-propanol, 333.07 K)?
The solubility (mole fraction) was 0.0223.

What about the solubility (mole fraction) (in n-propanol, 338.33 K) of the same compound?
Its solubility (mole fraction) is 0.0251.

And the solubility (mole fraction) (in n-propanol, 343.35 K)?
Its solubility (mole fraction) is 0.0286.

What about the solubility (mole fraction) (in water, 293.23 K) of the same compound?
Its solubility (mole fraction) is 0.00139.

What about the solubility (mole fraction) (in water, 298.15 K) of the same compound?
Its solubility (mole fraction) is 0.00158.

What about the solubility (mole fraction) (in water, 302.93 K) of the same compound?
Its solubility (mole fraction) is 0.00187.

What about the solubility (mole fraction) (in water, 312.93 K) of the same compound?
The solubility (mole fraction) was 0.00263.

What about the solubility (mole fraction) (in water, 317.65 K) of the same compound?
The solubility (mole fraction) was 0.00306.

What about the solubility (mole fraction) (in water, 322.85 K) of the same compound?
The solubility (mole fraction) was 0.00366.

What about the solubility (mole fraction) (in water, 327.77 K) of the same compound?
The solubility (mole fraction) was 0.00438.

What about the solubility (mole fraction) (in water, 332.83 K) of the same compound?
The solubility (mole fraction) was 0.00522.

What about the solubility (mole fraction) (in water, 337.35 K) of the same compound?
Its solubility (mole fraction) is 0.00623.

And the solubility (mole fraction) (in water, 342.47 K)?
Its solubility (mole fraction) is 0.00748.
